Data as given in patent US20100254940A1, “Compositions and Methods for Regulating an Immune Response in a Subject” (INNATE PHARMA, S.A., priority 2002, published 2010).
Where “and” joins values, the source holds several entries; their conditions need not be identical. Identical values can stand only once.

Legend:
TNFα = experiment: Serum TNFα by ELISA after BrHPP injection in cynomolgus monkeys; format: in vivo, cynomolgus monkeys (M. fascicularis)
Experimental: Serum cytokines (TNFα and INFg) were detected and quantified with the BIOSOURCE Cytoscreen™ ELISA monkey TNFa and Cytoscreen™ ELISA monkey INFg respectively (purchased from CliniSciences, Montrouge, France) according to the manufacturer's instructions.
Samples of sera were collected from group 2 animals during the first dose range assay (0 to 80 mg/kg) just before injection then 1 and 4 hours post injection, and assayed by ELISA specific for TNFa and IFNg.
The objective of this GLP study was to explore further the pharmaco-dynamic properties of Phosphostim (BrHPP, 200 mg; GMP batch) alone and in combination with IL-2 following several i.v. administrations to cynomolgus monkeys. In particular, this study was planned to evaluate: • A dose-effect relationship between Phosphostim injection and γδ T cell peripheral amplification; • The pharmaco-dynamic effect of a second, third and up to fifth administration of Phosphostim in male and female animals; • The functionality of in vivo induced γδ T cells, by dosing systemic cytokines after Phosphostim treatment; • The effect of treatment with IL-2 alone and to validate the selected dose of 0.6 million IU/day/animal.
Phosphostim was administered i.v., as slow infusions (50 ml in 30 minutes), at various dose levels to five groups of two animals (one male+one female). Males received two successive injections of BrHPP (Day 0 and Day 22) before sacrifice and females four injections (Days 0, 22, 52 and 84). Two females, selected upon their level of response to the 4th treatment, received a supplementary injection of BrHPP alone at Day 91, during γδ cell peripheral increase, for systemic cytokine dosages.

Vg9Vd2 cells = experiment: EC50 of BrHPP for triggering Vg9Vd2 cells; format: cell-based
Experimental: In vitro, we and others (Lang, 1995) have shown that the activation of Vg9Vd2 cells occurs within minutes after the addition of the molecule. Two mechanisms may prevent the molecule to be active in vivo i) the likely rapid renal clearance of such a small molecule and ii) a degradation process in vivo. […] Nevertheless, the concentration of the molecule, injected by intravenous route in relatively high amount, should be maintained beyond the 20 nM EC50 for a significant time, if no additional, blood cell or organ related degradation process occurs in vivo.

Vg9Vd2 T cells = experiment: Peripheral Vg9Vd2 T cell expansion in cynomolgus monkeys by flow cytometry (BrHPP non-GLP studies); format: in vivo, cynomolgus monkeys (M. fascicularis); conditions: for Absolute increase of Vg9Vd2: individual animals
Experimental: • Group 1: 5 purpose bred healthy male cynomolgus monkeys (M. fascicularis), supplied by C.R.P. Le Vallon, Ferney S.E., Mahebourg, Mauritius. At the beginning of the study, body weights range from 3.7 to 4.6 kg. • Group 2: 10 purpose bred healthy cynomolgus monkeys (5 males and 5 females), supplied by C.R.P. Le Vallon. At the beginning of the study, body weights range from 1.8 to 3.5 kg and ages from 2 to 3 years.
• Group 1: animals were anaesthetised with intra-muscular injection of 6 mg/kg ZoletilND 100 (Tiletamine-Zolazepam, Virbac, Carros, France) before any injection or blood taking. • Group 2: injections and blood taking were performed on manually restrained non-anaesthetised animals. • 4-day BrHPP alone treatment (group 1): 2 animals received 1 mg/kg of BrHPP in 10 ml saline on day 0 (microflex infusion set introduced into the external saphenous vein) and then 4 mg/kg, 16 mg/kg and 32 mg/kg in 20 ml saline on days 1, 2 and 3 by the same way. (Duration of infusion: 10 to 15 min). • BrHPP/IL2 co-treatments (group 1): 5 animals received either 20 mg/kg once or 4 mg/kg (16.7 mg/kg or 3.3 mg/kg of BrHPP anionic form) 5 times daily of BrHPP in final 50 ml saline by the same way as above (duration of infusion: 30 min). IL2 (18 million UI per vial, Proleukin®, Chiron, US) was resuspended in 1 ml sterile water and diluted to 10 ml with 4% HSA for a final concentration of 1.8 million UI/ml. In a first cycle of treatment, all animals received the same dose of IL2 consisting of 5 days of twice daily injections of 0.9 million units IL2. In a second cycle of treatment, animals received subcutaneously the following IL2 treatment: 0.15 million units twice daily for 9 days (animal Z059), 0.3 million units twice daily for 5 days (Z135), 0.9 million units twice daily for 5 days (animal Z714) or 9 days (animal X973).
A single animal received 80 mg/kg (66.6 mg/kg anionic form) BrHPP+9 days of IL2 co-treatment consisting of a single daily subcutaneous injection of 0.6 million units. • BrHPP/IL2 co-treatments (group 2): BrHPP was diluted in saline to the appropriate final concentration (depending on the dose to inject and on the last recorded body weight) so as to inject always approximately 50 ml in 30 min (microflex infusion set introduced into cephalic or external saphenous vein). All animals received 0.6 million IU IL2 per day for 7 days. IL2 was administered subcutaneously as 2 separate injections of 0.3 million IU IL2 in sterile water, 8-hour apart. Control animals received IL2 only.
Twice weekly blood samples (1 to 4 ml) were withdrawn from femoral vessels/artery into EDTA containing tubes. Tubes were shipped overnight at room temperature (RT) before flow cytometry analyses.
Peripheral γδ lymphocytes were analysed twice weekly by flow cytometry on total monkey blood, after double staining with anti-CD3-PE antibody and anti-Vgamma9-FITC antibodies and/or anti Vd2 antibodies (CD3-PE: SP34 clone, BD Biosciences Pharmingen, Le Pont de Claix, France). Anti Vgamma 9, clone 7B6 is a monoclonal raised to human Vgamma 9 but that cross-reacts with cynomolgus cells. It was purified by affinity chromatography on protein A and coupled to FITC as previously described.
Briefly, 50 μl monkey blood is incubated 15 min at RT with 5 μl anti-CD3-PE and 6 μl anti-delta2-FITC or 10 μl anti-gamma9-FITC antibodies. Antibodies are washed with 3 ml 1×PBS, centrifuged for 4 min at 1300 rpm at RT and supernatant is discarded. Red cells are lysed with the OptiLyse C reagent (Immunotech-Beckman-Coulter, Marseilles, France) according to the manufacturer's instructions. At the final step, stained white blood cells are recovered by centrifugation and resuspended in 300 μl PBS+0.2% PFA.

[1] = highest concentration (160 mg/kg), second injection + IL2

3-(bromomethyl)-3-butanol-1-yl-diphosphate [BrHPP]
serum level of TNFa (TNFα; 80 mg/kg, 4 hours post BrHPP injection): not further detectable
TNFα in the sera (TNFα; 80 mg/kg, one hour after injection): detectable
TNFa level (TNFα; fifth injection 80 mg/kg without IL2, 4 hours post injection): undetectable at 4 hours post injection
TNFa in the sera (TNFα; fifth injection 80 mg/kg without IL2 at peak after fourth injection): detectable
EC50 (Vg9Vd2 cells): 20 nM
% and absolute numbers of Vg9Vd2 (Vg9Vd2 T cells; 0.2 mg/kg + IL2 7 days): undistinguishable from the control animals
peak of increase in peripheral γδ cells (Vg9Vd2 T cells; 20 mg/kg once or 4 mg/kg x 5 + IL2, group 1): 7 days
% and absolute numbers of Vg9Vd2 (Vg9Vd2 T cells; 4 to 80 mg/kg + IL2, day 7): A dose range effect was observed
expansion at recall (Vg9Vd2 T cells; first 20 mg, then 80 mg): expansions comparable to animals treated with 80 mg/kg at the first injection
expansion at recall (Vg9Vd2 T cells; first 80 mg/kg, then 20 mg/kg, vs first injection at 20 mg/kg): decreased expansion
% of Vg9Vd2 (Vg9Vd2 T cells; five daily injection of 0.2 mg/kg BrHPP alone, 4 monkeys): expansion was not significant
Follow up of Vg9Vd2 (Vg9Vd2 T cells; four daily injections 1, 4, 16, 32 mg/kg BrHPP alone, two animals): a decrease at day two post first injection
increase of Vg9Vd2 (Vg9Vd2 T cells; fourth injection of 80 mg/kg BrHPP and IL2, five animals): detectable increase of Vg9Vd2 although lower than that obtained in the third injection
absolute numbers of Vg9Vd2 (mean) (Vg9Vd2 T cells; [1]): 10,000 Vg9Vd2 cells/mm3
level of circulating Vg9Vd2 among circulating CD3 positive cells (Vg9Vd2 T cells; [1]): about 80%
Absolute increase of Vg9Vd2 (Vg9Vd2 T cells; same dose split in 5 daily injections of 4 mg/kg + IL2 5 days, 4 mg/kg): 8 × and 18 ×
amplification rate at the second injection vs first (Vg9Vd2 T cells; second single shot 20 mg/kg + IL2, animals with 5 daily 4 mg/kg at first injection): slightly higher amplification rate
amplification rate in the second injection vs first (Vg9Vd2 T cells; second single shot 20 mg/kg + IL2, animals with single shot at first injection): slightly reduced amplification rate
Absolute increase of Vg9Vd2 (Vg9Vd2 T cells; single dose 20 mg/kg + IL2 5 days, 20 mg/kg): 30 × and 40 ×
increase of Vγ9Vδ2 (Vg9Vd2 T cells; third cycle 80 mg/kg + IL2, control animal which received only IL2 in first two courses): around 40
increase of Vγ9Vδ2 at the third injection (Vg9Vd2 T cells; third injection 80 mg/kg + IL2, animal 2034): 28 ×
amplification of Vγ9Vδ2 (Vg9Vd2 T cells; third injection 80 mg/kg + IL2, three other animals): lower than 40
mean increase of peripheral γδ cell number (Vg9Vd2 T cells; total amount of 20 mg/kg BrHPP + IL2, day 7): 24 fold
